In ChEMBL document CHEMBL1137368, “Antitumor activity of substituted E-3-(3,4,5-trimethoxybenzylidene)-1,3-dihydroindol-2-ones1” (2006):
Structures can show the parent of a compound that is named as a salt.

What was measured:
Assay type in all cases: functional
Conditions in all cases: Homo sapiens; for TGI: read-out: pTGI (converted)
[1] = test system: Panel colon (Carcinoma cell lines); experiment: Anticancer activity against colon cancer cell lines of NCI60 panel
[2] = test system: Panel breast (Carcinoma cell lines); experiment: Anticancer activity against breast cancer cell lines of NCI60 panel
[3] = test system: Panel renal (Carcinoma cell lines); experiment: Anticancer activity against renal cancer cell lines of NCI60 panel
[4] = test system: Panel melanoma (Carcinoma cell lines); experiment: Anticancer activity against melanoma cancer cell lines of NCI60 panel
NSCLC = experiment: Anticancer activity against NSCLC cancer cell lines of NCI60 panel
[5] = test system: Panel prostate (Carcinoma cell lines); experiment: Anticancer activity against prostate cancer cell lines of NCI60 panel
[6] = test system: Panel ovarian (Carcinoma cell lines); experiment: Anticancer activity against ovarian cancer cell lines of NCI60 panel
[7] = test system: Panel CNS (Carcinoma cell lines); experiment: Anticancer activity against CNS cancer cell lines of NCI60 panel
[8] = test system: Panel leukemia (Carcinoma cell lines); experiment: Anticancer activity against leukemia cancer cell lines of NCI60 panel

SMILES	GI50 [1]	LC50 [1]	TGI [1]	GI50 [2]	TGI [2]	GI50 [3]	LC50 [3]	TGI [3]	GI50 [4]	LC50 [4]	TGI [4]	GI50 (NSCLC)	TGI (NSCLC)	GI50 [5]	GI50 [6]	TGI [6]	GI50 [7]	TGI [7]	GI50 [8]	TGI [8]	also measured
COc1ccc2c(c1)/C(=C\c1cc(OC)c(OC)c(OC)c1)C(=O)N2	0.182 µM	83.2 µM	32.4 µM	0.398 µM	14.8 µM	0.575 µM	91.2 µM	19.1 µM	0.891 µM	95.5 µM	41.7 µM	1.12 µM	58.9 µM	0.692 µM	0.676 µM	15.5 µM	0.417 µM	12.6 µM	0.0871 µM	11.2 µM	LC50 [2]: 50.1 µM; LC50 [6]: 41.7 µM; LC50 [7]: 95.5 µM
COc1cc(/C=C2/C(=O)Nc3cccc(Cl)c32)cc(OC)c1OC	–	–	–	85.1 µM	–	61.7 µM	–	–	–	–	–	75.9 µM	–	–	89.1 µM	–	61.7 µM	97.7 µM	2.4 µM	16.2 µM	–
COc1cc2c(cc1C)NC(=O)/C2=C/c1cc(OC)c(OC)c(OC)c1	85.1 µM	–	–	–	93.3 µM	55 µM	–	89.1 µM	74.1 µM	–	–	57.5 µM	81.3 µM	–	75.9 µM	–	41.7 µM	83.2 µM	18.2 µM	52.5 µM	–
COc1cc(/C=C2/C(=O)Nc3ccc(F)cc32)cc(OC)c1OC	30.9 µM	–	–	9.55 µM	87.1 µM	34.7 µM	–	–	37.2 µM	–	–	26.9 µM	91.2 µM	27.5 µM	44.7 µM	–	33.1 µM	85.1 µM	14.1 µM	–	–
COc1cc(/C=C2/C(=O)Nc3ccc(O)cc32)cc(OC)c1OC	12.3 µM	83.2 µM	47.9 µM	9.12 µM	52.5 µM	14.1 µM	83.2 µM	44.7 µM	10 µM	69.2 µM	27.5 µM	11.7 µM	40.7 µM	2.4 µM	14.1 µM	47.9 µM	8.71 µM	41.7 µM	3.02 µM	30.9 µM	LC50 [2]: 97.7 µM; LC50 (NSCLC): 89.1 µM; TGI [5]: 19.1 µM; LC50 [6]: 93.3 µM; LC50 [7]: 91.2 µM
COc1cc(/C=C2/C(=O)Nc3ccccc32)cc(OC)c1OC	15.1 µM	–	75.9 µM	19.1 µM	77.6 µM	18.6 µM	–	75.9 µM	20 µM	–	81.3 µM	18.6 µM	85.1 µM	18.6 µM	24.5 µM	95.5 µM	12.3 µM	85.1 µM	7.59 µM	87.1 µM	–
COc1cc(/C=C2/C(=O)N(c3ccccc3)c3ccccc32)cc(OC)c1OC	5.75 µM	67.6 µM	26.9 µM	8.32 µM	53.7 µM	5.75 µM	64.6 µM	23.4 µM	7.41 µM	52.5 µM	20.9 µM	9.33 µM	36.3 µM	3.16 µM	10 µM	32.4 µM	6.03 µM	30.9 µM	2.29 µM	14.1 µM	LC50 (NSCLC): 83.2 µM; TGI [5]: 16.2 µM; LC50 [6]: 83.2 µM; LC50 [7]: 72.4 µM
COc1cc(/C=C2/C(=O)Nc3ccc(Cl)cc32)cc(OC)c1OC	8.32 µM	–	93.3 µM	15.8 µM	56.2 µM	15.8 µM	–	64.6 µM	28.2 µM	–	–	20.9 µM	74.1 µM	2.95 µM	17 µM	77.6 µM	17.4 µM	56.2 µM	8.71 µM	–	–
COc1cc(/C=C2/C(=O)N(C)c3ccccc32)cc(OC)c1OC	13.5 µM	–	61.7 µM	19.5 µM	77.6 µM	12.3 µM	–	61.7 µM	17.4 µM	–	43.7 µM	18.2 µM	67.6 µM	10.5 µM	18.2 µM	81.3 µM	9.55 µM	81.3 µM	7.24 µM	70.8 µM	–
CC[C@]1(O)C[C@H]2CN(CCc3c([nH]c4ccccc34)[C@@](C(=O)OC)(c3cc4c(cc3OC)N(C=O)[C@H]3[C@@](O)(C(=O)OC)[C@H](OC(C)=O)[C@]5(CC)C=CCN6CC[C@]43[C@@H]65)C2)C1 [VINCRISTINE SULFATE]	0.1 µM	–	3.98 µM	0.316 µM	7.94 µM	0.316 µM	–	20 µM	0.158 µM	–	7.94 µM	0.251 µM	15.8 µM	0.126 µM	0.316 µM	20 µM	0.126 µM	6.31 µM	0.1 µM	15.8 µM	TGI [5]: 6.31 µM
